This passage reports IC50 results from patent US20230286958A1, “PLASMA KALLIKREIN INHIBITORS” (Merck Sharp & Dohme LLC, priority 2020, published 2023).

The structures appear in SMILES notation.

One assay concerns the target human Factor XIa (Homo sapiens (Human), UniProt P03951). Nature of the assay: Factor XIa Assay (fluorogenic substrate GPR-AFC). It is filed as biochemical. The following applies: Factor XIa (FXIa). As to the method: (§1) The effectiveness of a compound of the present invention as an inhibitor of Coagulation Factor XIa can be determined using a relevant purified serine protease, and an appropriate synthetic substrate. The rate of hydrolysis of the chromogenic or fluorogenic substrate by the relevant serine protease was measured both in the absence and presence of compounds of the present invention. Assays were conducted at room temperature or at 37° C. […] A decrease in the rate of fluorescence change in the presence of inhibitor is indicative of enzyme inhibition. Such methods are known to one skilled in the art. The results of this assay are expressed as the half-maximal inhibitory concentrations (IC50), or the inhibitory constant, Ki.
Compounds were pre-incubated for 30 minutes at 25° C. with human (0.04 nM) Factor XIa in 50 mM HEPES buffer with 150 mM sodium chloride, 5 mM calcium chloride, 0.1% PEG 8000, pH 7.4. […] The % inhibition for each data point was calculated from the data and analyzed using the log (inhibitor) vs. response four parameters equation to determine the half-maximal inhibitory concentrations (IC50). The IC50 were converted to equilibrium inhibitory constants (Ki) using the Cheng-Prusoff equation.

The target of the next assay is Human plasma kallikrein (Homo sapiens (Human), UniProt P03952). Kind of assay: Kallikrein Assay (fluorogenic substrate Acetyl-K-P-R-AFC). The following applies: Plasma Kallikrein (PKal). It is filed as biochemical. As to the method:
as §1, with “Kallikrein” for “Coagulation Factor XIa”
Kallikrein determinations were made in 50 mM HEPES buffer at pH 7.4 containing 150 mM NaCl, 5 mM CaC12, and 0.1% PEG 8000 (polyethylene glycol; Fisher Scientific). Determinations were made using purified Human plasma kallikrein at a final concentration of 0.5 nM (Enzyme Research Laboratories) and the synthetic substrate, Acetyl-K-P-R-AFC (Sigma # C6608) at a concentration of […].
Times required to achieve equilibration between enzyme and inhibitor were determined in control experiments. […] IC50 was determined by inflection point from a four parameter logistic curve fit. Ki was calculated using the Cheng Prusoff equation, Ki = IC50/(1+([S]/Km)).

Sequence of human Factor XIa (P03951 388-625 limits assumed): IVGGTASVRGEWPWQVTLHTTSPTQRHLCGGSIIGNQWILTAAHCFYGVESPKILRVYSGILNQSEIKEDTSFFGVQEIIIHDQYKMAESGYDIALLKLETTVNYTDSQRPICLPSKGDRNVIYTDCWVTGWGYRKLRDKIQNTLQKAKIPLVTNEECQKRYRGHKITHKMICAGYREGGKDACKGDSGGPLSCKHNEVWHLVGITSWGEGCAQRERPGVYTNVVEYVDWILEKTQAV
Sequence of human Factor XIa (P03951 19-387 partner limits assumed): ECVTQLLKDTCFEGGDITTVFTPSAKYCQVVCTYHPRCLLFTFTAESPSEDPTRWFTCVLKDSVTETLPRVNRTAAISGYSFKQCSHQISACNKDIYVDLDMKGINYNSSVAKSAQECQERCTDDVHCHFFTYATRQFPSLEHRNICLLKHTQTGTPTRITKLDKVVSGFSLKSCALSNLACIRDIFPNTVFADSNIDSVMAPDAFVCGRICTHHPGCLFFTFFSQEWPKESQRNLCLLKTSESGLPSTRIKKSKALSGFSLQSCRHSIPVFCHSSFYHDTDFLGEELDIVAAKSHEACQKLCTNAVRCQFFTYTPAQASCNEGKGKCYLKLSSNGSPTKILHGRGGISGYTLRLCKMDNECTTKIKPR
Sequence of Human plasma kallikrein (P03952 391-638): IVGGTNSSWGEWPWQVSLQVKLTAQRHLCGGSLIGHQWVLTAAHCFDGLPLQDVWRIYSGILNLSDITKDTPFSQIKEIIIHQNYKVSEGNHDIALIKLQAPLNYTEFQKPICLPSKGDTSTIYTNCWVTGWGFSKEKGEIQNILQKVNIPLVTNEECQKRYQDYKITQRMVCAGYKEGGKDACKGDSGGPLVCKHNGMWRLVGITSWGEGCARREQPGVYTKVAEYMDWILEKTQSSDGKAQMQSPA
Sequence of Human plasma kallikrein (P03952 20-390 partner): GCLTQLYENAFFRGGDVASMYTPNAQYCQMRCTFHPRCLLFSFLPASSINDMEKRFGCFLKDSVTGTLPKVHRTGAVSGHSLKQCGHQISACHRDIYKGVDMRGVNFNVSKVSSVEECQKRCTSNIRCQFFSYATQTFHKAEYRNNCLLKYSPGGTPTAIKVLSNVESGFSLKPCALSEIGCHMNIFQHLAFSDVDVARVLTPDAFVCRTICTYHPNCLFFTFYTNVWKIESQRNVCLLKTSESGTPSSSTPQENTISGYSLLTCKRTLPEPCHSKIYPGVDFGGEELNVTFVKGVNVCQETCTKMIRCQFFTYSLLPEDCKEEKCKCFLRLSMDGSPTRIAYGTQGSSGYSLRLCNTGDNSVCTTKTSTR

In general, IC50 refers to the concentration that gives 50% inhibition. High values mean weaker potency, low ones greater potency. As to `COc1ncc(-c2c(OC(F)F)ccc(Cl)c2F)nc1C(=O)Nc1cnn(C(C)c2cnc(N3C[C@H]4C[C@H]4C3=O)c(C)n2)c1` (single isomer, unassigned) [Example 241, 6-(3-Chloro-6-(difluoromethoxy)-2-fluorophenyl)-3-methoxy-N-(1-((S or R)-1-(6-methyl-5-((1R,5S)-2-oxo-3-azabicyclo[3.1.0]hexan-3-yl)pyrazin-2-yl)ethyl)-1H-pyrazol-4-yl)pyrazine-2-carboxamide], the IC50 was found to be 377 nM on human Factor XIa and 0.7 nM on Human plasma kallikrein.
Taken in the same sequence, the figures for `Cc1nc(N2C[C@H]3C[C@H]3C2=O)ncc1C(C)n1cc(NC(=O)c2nc(-c3c(C(F)F)ccc(Cl)c3F)cnc2C)cn1` (single isomer, unassigned) [Example 42] were 1520 nM and 0.7 nM.
Taken in the same sequence, the figures for `Cc1c(C(C)n2cc(NC(=O)c3cncc(-c4c(C(F)F)ccc(Cl)c4F)n3)cn2)cnc(N2C[C@H]3C[C@H]3C2=O)c1F` (stereo partly drawn) [Example 45, 6-(3-Chloro-6-(difluoromethyl)-2-fluorophenyl)-N (1-(1-(5-fluoro-4-methyl-6-((1R,5S)-2-oxo-3-azabicyclo[3.1.0]hexan-3-yl)pyridin-3-yl)ethyl)-1H-pyrazol-4-yl)pyrazine-2-carboxamide] were 4670 nM and 6.1 nM.
As for `[2H]C1([2H])C2CC2C(=O)N1c1ncc([C@H](C)n2cc(NC(=O)c3nc(-c4c(C(F)F)ccc(Cl)c4F)cnc3C)cn2)c(C)n1` (single isomer, unassigned) [Example 178, 6-(3-Chloro-6-(difluoromethyl)-2-fluorophenyl)-3-methyl-N-(1-((S)-1-(4-methyl-2-((1R,5S or 1S,5R)-2-oxo-3-azabicyclo[3.1.0]hexan-3-yl-4,4-d2)pyrimidin-5-yl)ethyl)-1H-pyrazol-4-yl)pyrazine-2-carboxamide], the IC50 against human Factor XIa was determined as 4530 nM; against Human plasma kallikrein it was 14.2 nM.
The like results for `Cc1nc(C(C)n2cc(NC(=O)c3cncc(-c4c(C(F)(F)F)ccc(Cl)c4F)n3)cn2)cnc1N1C[C@H]2C[C@H]2C1=O` (single isomer, unassigned) [Example 18] were, in that order, 4080 nM and 19.5 nM.
Taken in the same sequence, the figures for `Cc1ncc(-c2c(C(F)F)ccc(Cl)c2F)nc1C(=O)Nc1cnn(C(C)c2ccc(N3CC4CC4C3=O)nc2)c1` (single isomer, unassigned) [Example 76, 6-(3-Chloro-6-(difluoromethyl)-2-fluorophenyl)-3-methyl-N-(1-((S or R)-1-(6-((1S,5R or 1R,5S)-2-oxo-3-azabicyclo[3.1.0]hexan-3-yl)pyridin-3-yl)ethyl)-1H-pyrazol-4-yl)pyrazine-2-carboxamide] were greater than 10000 nM and 43 nM.
Turning to `Cc1nc(C(C)n2cc(NC(=O)c3nc(-c4c(C(F)F)ccc(Cl)c4F)cnc3C(F)F)cn2)cnc1N1C[C@H]2C[C@H]2C1=O` (single isomer, unassigned) [Example 101, 6-(3-Chloro-6-(difluoromethyl)-2-fluorophenyl)-3-(difluoromethyl)-N-(1-((R or S)-1-(6-methyl-5-((1R,5S)-2-oxo-3-azabicyclo[3.1.0]hexan-3-yl)pyrazin-2-yl)ethyl)-1H-pyrazol-4-yl)pyrazine-2-carboxamide], the figures for the IC50 against human Factor XIa and on Human plasma kallikrein were 3950 nM and 0.6 nM, respectively.
`COc1c(N2C[C@H]3C[C@H]3C2=O)ncc(C(C)n2cc(NC(=O)c3cncc(-c4c(C(F)F)ccc(Cl)c4F)n3)cn2)c1C` (single isomer, unassigned) [Example 155, 6-(3-Chloro-6-(difluoromethyl)-2-fluorophenyl)-N-(1-((S or R)-1-(5-methoxy-4-methyl-6-((1R,5S)-2-oxo-3-azabicyclo[3.1.0]hexan-3-yl)pyridin-3-yl)ethyl)-1H-pyrazol-4-yl)pyrazine-2-carboxamide]: the IC50 against human Factor XIa turned out to be 8200 nM; at Human plasma kallikrein it was 7.1 nM.
Taken in the same sequence, the figures for `CCc1nc(C(C)n2cc(NC(=O)c3cncc(-c4c(C(F)F)ccc(Cl)c4F)n3)cn2)cnc1N1C[C@H]2C[C@H]2C1=O` (single isomer, unassigned) [Example 56, 6-(3-Chloro-6-(difluoromethyl)-2-fluorophenyl)-N-(1-((R or S)-1-(6-ethyl-5-((1R,5S)-2-oxo-3-azabicyclo[3.1.0]hexan-3-yl)pyrazin-2-yl)ethyl)-1H-pyrazol-4-yl)pyrazine-2-carboxamide] were greater than 10000 nM and 1.5 nM.
In the case of `Cc1cc(N2C[C@H]3C[C@H]3C2=O)ccc1C(C)n1cc(NC(=O)c2cncc(-c3c(C(F)F)ccc(Cl)c3F)n2)cn1` (single isomer, unassigned) [Example 99, 6-(3-Chloro-6-(difluoromethyl)-2-fluorophenyl)-N-(1-((R or S)-1-(2-methyl-4-((1R,5S)-2-oxo-3-azabicyclo[3.1.0]hexan-3-yl)phenyl)ethyl)-1H-pyrazol-4-yl)pyrazine-2-carboxamide], the values for the IC50 against human Factor XIa and on Human plasma kallikrein were 2880 nM and 49.1 nM, respectively.
The like results for `Cc1cc(Cn2cc(NC(=O)c3nc(-c4c(C(F)F)ccc(Cl)c4F)cnc3C)cn2)cnc1N1C[C@H]2C[C@H]2C1=O` [Example 41, 6-(3-Chloro-6-(difluoromethyl)-2-fluorophenyl)-3-methyl-N-(1-((5-methyl-6-((1R,5S)-2-oxo-3-azabicyclo[3.1.0]hexan-3-yl)pyridin-3-yl)methyl)-1H-pyrazol-4-yl)pyrazine-2-carboxamide] were, in that order, 53 nM and 0.2 nM.
Taken in the same sequence, the figures for `Cc1cc(C(C)n2cc(NC(=O)c3nc(-c4c(OC(F)F)ccc(Cl)c4F)cnc3COC(C)(C)C)cn2)cnc1N1C[C@H]2C[C@H]2C1=O` (mixture of isomers) [Example 228, 3-(tert-Butoxymethyl)-6-(3-chloro-6-(difluoromethoxy)-2-fluorophenyl)-N-(1-((R and S)-1-(5-methyl-6-((1R,5S)-2-oxo-3-azabicyclo[3.1.0]hexan-3-yl)pyridin-3-yl)ethyl)-1H-pyrazol-4-yl)pyrazine-2-carboxamide] were 602 nM and 1.6 nM.
Taken in the same sequence, the figures for `C[C@@H](c1cnc(N2C[C@H]3C[C@H]3C2=O)nc1)n1cc(NC(=O)c2nc(-c3c(C(F)F)ccc(Cl)c3F)cnc2C(C)(C)O)cn1` [Example 181, 6-(3-Chloro-6-(difluoromethyl)-2-fluorophenyl)-3-(2-hydroxypropan-2-yl)-N-(1-((S)-1-(2-((1R,5S)-2-oxo-3-azabicyclo[3.1.0]hexan-3-yl)pyrimidin-5-yl)ethyl)-1H-pyrazol-4-yl)pyrazine-2-carboxamide] were greater than 10000 nM and 37.1 nM.
As for `Cc1cc(C(C)n2cc(NC(=O)c3nc(-c4c(OC(F)F)ccc(Cl)c4F)cnc3C)cn2)cnc1N1C[C@H]2C[C@H]2C1=O` (single isomer, unassigned) [Example 132, 6-(3-Chloro-6-(difluoromethoxy)-2-fluorophenyl)-3-methyl-N-(1-((R or S)-1-(5-methyl-6-((1R,5S)-2-oxo-3-azabicyclo[3.1.0]hexan-3-yl)pyridin-3-yl)ethyl)-1H-pyrazol-4-yl)pyrazine-2-carboxamide], the IC50 on human Factor XIa came out at 139 nM; against Human plasma kallikrein, 0.6 nM.
Taken in the same sequence, the figures for `Cc1nc(C(C)n2cc(NC(=O)c3nc(-c4c(C(F)F)ccc(Cl)c4F)cnc3C)cn2)ccc1N1C[C@H]2C[C@H]2C1=O` (single isomer, unassigned) [Example 58, 6-(3-Chloro-6-(difluoromethyl)-2-fluorophenyl)-3-methyl-N-(1-((S or R)-1-(6-methyl-5-((1R,5S)-2-oxo-3-azabicyclo[3.1.0]hexan-3-yl)pyridin-2-yl)ethyl)-1H-pyrazol-4-yl)pyrazine-2-carboxamide] were greater than 10000 nM and 0.6 nM.
The like results for `Cc1ncc(-c2c(C(F)F)ccc(Cl)c2F)nc1C(=O)Nc1cnn(C(C)c2cnc(N3C[C@H]4C[C@H]4C3=O)c(F)c2C)c1` (single isomer, unassigned) [Example 128, 6-(3-Chloro-6-(difluoromethyl)-2-fluorophenyl)-N-(1-((R or S)-1-(5-fluoro-4-methyl-6-((1R,5S)-2-oxo-3-azabicyclo[3.1.0]hexan-3-yl)pyridin-3-yl)ethyl)-1H-pyrazol-4-yl)-3-methylpyrazine-2-carboxamide] were, in that order, 5270 nM and 7.1 nM.
